The values that follow come from patent US20100029643A1 (ASTRAZENECA AB, priority 2006, published 2010).

As a reminder, the inhibition is the share of the control response that was lost under treatment.

For the first assay, the target named is T1, Edg-1/S1P1 receptor (Homo sapiens, UniProt P21453).
T1 construct: expressed in transfected cells; host or cells: human osteogenic sarcoma U2OS cells: Edg-1 Transfluor U2OS WT Clone #37 (assay I), Edg-1 Transfluor U2OS Clone #3 (assay II)
T1 sequence (P21453 whole entry): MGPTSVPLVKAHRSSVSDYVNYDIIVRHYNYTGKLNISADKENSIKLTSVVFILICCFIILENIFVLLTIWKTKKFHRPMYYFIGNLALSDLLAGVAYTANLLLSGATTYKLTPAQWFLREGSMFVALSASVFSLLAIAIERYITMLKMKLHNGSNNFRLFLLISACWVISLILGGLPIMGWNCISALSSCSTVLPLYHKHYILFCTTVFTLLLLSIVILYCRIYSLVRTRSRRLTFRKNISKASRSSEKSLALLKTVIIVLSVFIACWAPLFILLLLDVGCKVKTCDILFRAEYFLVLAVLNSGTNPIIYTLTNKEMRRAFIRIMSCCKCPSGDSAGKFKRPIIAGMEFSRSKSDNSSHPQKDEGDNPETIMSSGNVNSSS
Nature of the assay: In vitro cell based receptor activation assay - Transfluor assay (assay I or II; beta-arrestin GFP relocalization after S1P stimulation). To be noted: at 3.30 μM (run with this as top concentration). The source says:
The following assays can be used to measure the effects of the compounds of the present invention as S1P1/Edg1 inhibitors.
I. In Vitro Cell Based Receptor Activation Assay-Transfluor Assay
This cell-based assay was designed to assess the ability of small molecule antagonists to inhibit activation of the GPCR S1P1 in the presence of its cognate ligand S1P. The assay used technology initially developed by Norak Biosciences (Xsira Pharmaceutical) and presently owned by Molecular Devices. A human osteogenic sarcoma (U2OS) cell line overexpressing the Edg-1/S1P1) receptor as well as a beta-arrestin/green fluorescent protein (GFP) construct hereafter termed Edg-1 Transfluor U2OS WT Clone #37 was employed.
Using a high content screening approach (Cellomics Arrayscan), receptor activity was measured by assessment of the relocalization of beta-arrestin GFP in response to stimulation of Edg-1 by SIP. Specifically, Edg-1 Transfluor U2OS WT Clone #37 cells were plated at a density of 6250 cells in 40 μL medium per well in 384 well plastic bottomed microtiter plates (BD Falcon) and incubated overnight at 37° C./5% CO2. Prior to screening, compounds were dissolved in 100% dimethyl sulfoxide (DMSO) to a final stock concentration of 10 mM. Compounds were then serially diluted at 30× final concentration in Edg-1 Transfluor cell growth medium containing […] using the Tecan Genesis instrument. These 30× plates were then diluted to 6× final concentration with Edg-1 Transfluor growth medium just prior to dosing. Cells were then dosed with 10 μL per well of 6× compound dilutions or 6% DMSO and pre-incubated for 15 minutes at room temperature. Cell plates were dosed with 10 μL per well 6× S1P Edg-1 Transfluor growth medium, then incubated for 45 minutes at 37° C./5% CO2. Final concentration in the well of DMSO was 1%, compound was IX (3-fold, 9 point IC50 dilutions starting at 100 μM final concentration), and either 375 nM or […] SIP ligand. Cell plates were then fixed by adding 50 μL per well of 5% formaldehyde in 1× Dulbecco's phosphate buffered saline (DPBS) directly and incubating for 30 minutes at room temperature in darkness. Fixative was removed and replaced with 50 μL per well of 1×DPBS, after which cells were stained with 10 μg/mL final concentration of Hoechst 33342 (Molecular Probes) for 15 minutes at room temperature in darkness. Stain was then removed from the plates and replaced with 50 μL per well of 1×DPBS using the BioTek ExL405 plate washer. Plates were then sealed and analysed on the Cellomics Arrayscan using the GPCR signalling algorithm. EC50 values were then calculated using IDBS ActivityBase software.
II. In Vitro Cell Based Receptor Activation Assay-Transfluor Assay
This cell-based assay was designed to assess the ability of small molecule antagonists to inhibit activation of the GPCR S1P1 in the presence of its cognate ligand S1P. The assay used technology initially developed by Norak Biosciences (Xsira Pharmaceutical) and presently owned by Molecular Devices (MDS Analytical Technologies). A human osteogenic sarcoma (U2OS) cell line overexpressing the Edg-1/S1P1) receptor as well as a beta-arrestin/green fluorescent protein (GFP) construct hereafter termed Edg-1 Transfluor U2OS Clone #3 was employed.
Using a high content screening approach (Molecular Devices Image Express), receptor activity was measured by assessment of the relocalization of beta-aiTestin GFP in response to stimulation of Edg-1 by S1P. Specifically, Edg-1 Transfluor U2OS Clone #3 cells were plated at a density of 6250 cells in 44 μL medium per well in 384 well plastic bottomed microtiter plates (BD Falcon) and incubated overnight at 37° C./5% CO2. Prior to screening, compounds were dissolved in 100% dimethyl sulfoxide (DMSO) to a final stock concentration of 10 mM. Compounds were then serially diluted at 10× final concentration in Edg-1 Transfluor cell growth medium containing 6% DMSO using the BioMek instrument. […]
On to `CCn1c([C@@H](C)NS(=O)(=O)c2ccccc2)nc2ccc(C(F)(F)F)cc21` [Example 50, N-{(1R)-1-[1-Ethyl-6-(trifluoromethyl)-1H-benzimidazol-2-yl]ethyl}benzenesulfonamide], for which the inhibition at 3.3 µM was 92.1%.

Staying with this assay, now noted: at 3.50 μM (titrated from top concentration 10 μM).
Consider `CCn1c([C@@H](C)NS(=O)(=O)c2cnc(Cl)c(Cl)c2)nc2ccc(C(F)(F)F)cc21` [Example 48, 5,6-dichloro-N-(1-(1-ethyl-6-(trifluoromethyl)-1H-benzo[d]imidazol-2-yl)ethyl)pyridine-3-sulfonamide], for which at 3.5 µM the inhibition was 95.4%.

The compound `CCn1c([C@@H](C)NS(=O)(=O)c2ccc(Cl)cc2)nc2cc(F)c(Cl)cc21` [Example 56, 4-Chloro-N-[(1R)-1-(6-chloro-1-ethyl-5-fluoro-1H-benzimidazol-2-yl)ethyl]benzenesulfonamide] gave an inhibition at 3.5 µM of 96%. `CCn1c([C@@H](C)NS(=O)(=O)c2ccc(Cl)cc2)nc2cc3c(cc21)OCO3` [Example 63, (R)-4-Chloro-N-[1-(5-Ethyl-5H-[1,3]dioxolo[4′,5′;4,5]-benzo[1,2-d]imidazol-6-yl)-ethyl]benzenesulfonamide] yielded an inhibition at 3.5 µM of 93.9%. With `CCn1c([C@@H](C)NS(=O)(=O)c2ccc(Cl)cc2)nc2ccc(C(F)F)cc21` [Example 69, 4-Chloro-N-{(1R)-1-[6-(difluoromethyl)-1-ethyl-1H-benzimidazol-2-yl]ethyl}benzenesulfonamide], the inhibition at 3.5 µM was 85.2%.

Staying with this assay, now noted: at 3.70 μM (titrated from top concentration 100 μM).
On to `CCn1c([C@@H](C)NS(=O)(=O)c2ccsc2)nc2ccc(C(F)(F)F)cc21` [Example 47, N-{(1R)-1-[1-Ethyl-6-(trifluoromethyl)-1H-benzimidazol-2-yl]ethyl}thiophene-3-sulfonamide], for which the inhibition at 3.7 µM worked out at 89.6%. In the case of `CCn1c([C@@H](C)NS(=O)(=O)c2cnc(Cl)c(Br)c2)nc2ccc(C(F)(F)F)cc21` [Example 49, 5-Bromo-6-chloro-N-{(1R)-1-[1-ethyl-6-(trifluoromethyl)-1H-benzimidazol-2-yl]ethyl}pyridine-3-sulfonamide], at 3.7 µM the inhibition was 92.1%. The same measure, in the same setting: the result for `CCn1c([C@@H](C)NS(=O)(=O)c2c(F)cc(F)cc2F)nc2ccc(C(F)(F)F)cc21` [Example 51, N-{(1R)-1-[1-Ethyl-6-(trifluoromethyl)-1H-benzimidazol-2-yl]ethyl}-2,4,6-trifluorobenzenesulfonamide] reads 92.8%. The compound `CCn1c([C@@H](C)NS(=O)(=O)c2ccc(Cl)c3cccnc23)nc2ccc(C(F)(F)F)cc21` [Example 52, 5-Chloro-N-{(1R)-1-[1-ethyl-6-(trifluoromethyl)-1H-benzimidazol-2-yl]ethyl}-quinoline-8-sulfonamide] registered an inhibition at 3.7 µM of 89%. Compound `CCCn1cc(S(=O)(=O)N[C@H](C)c2nc3ccc(C(F)(F)F)cc3n2CC)c(C)n1` [Example 53, N-{(1R)-1-[1-Ethyl-6-(trifluoromethyl)-1H-benzimidazol-2-yl]ethyl}-3-methyl-1-propyl-1H-pyrazole-4-sulfonamide] displayed an inhibition at 3.7 µM of 84.5%. Regarding `CCCn1ncc(S(=O)(=O)N[C@H](C)c2nc3ccc(C(F)(F)F)cc3n2CC)c1C` [Example 54, N-{(1R)-1-[1-Ethyl-6-(trifluoromethyl)-1H-benzimidazol-2-yl]ethyl}-5-methyl-1-propyl-1H-pyrazole-4-sulfonamide], the inhibition at 3.7 µM was 77.5%. In turn, `CCn1c([C@@H](C)NS(=O)(=O)c2ccc(Cl)cc2)nc2cc(F)cc(F)c21` [Example 57, 4-Chloro-N-[(1R)-1-(1-ethyl-5,7-difluoro-1H-benzimidazol-2-yl)ethyl]benzenesulfonamide] had an inhibition at 3.7 µM of 84.5%. As for `CCn1c([C@@H](C)NS(=O)(=O)c2ccc(Cl)cc2)nc2cc(Cl)cc(Cl)c21` [Example 58, 4-Chloro-N-[(1R)-1-(5,7-dichloro-1-ethyl-1H-benzimidazol-2-yl)ethyl]benzenesulfonamide], the inhibition at 3.7 µM is 78.2%. In turn, `CCn1c([C@@H](C)NS(=O)(=O)c2ccc(Cl)cc2)nc2cc(C)c(Cl)cc21` [Example 59, 4-Chloro-N-[(1R)-1-(6-chloro-1-ethyl-5-methyl-1H-benzimidazol-2-yl)ethyl]benzenesulfonamide] came in with an inhibition at 3.7 µM of 78.2%. `CCn1c([C@@H](C)NS(=O)(=O)c2ccc(Cl)cc2)nc2cccc(F)c21` [Example 60] gave an inhibition at 3.7 µM of 97.7%.

`CCn1c([C@@H](C)NS(=O)(=O)c2ccc(Cl)cc2)nc2cc(OC)c(OC)cc21` [Example 61, 4-Chloro-N-[(1R)-1-(1-ethyl-5,6-dimethoxy-1H-benzimidazol-2-yl)ethyl]benzenesulfonamide] yielded an inhibition at 3.7 µM of 54.9%. `CCn1c([C@@H](C)NS(=O)(=O)c2ccc(Cl)cc2)nc2cc3c(cc21)OCCO3` [Example 62, 4-Chloro-N-[(1R)-1-(1-ethyl-6,7-dihydro-1H-[1,4]dioxino-[2,3-f]benzimidazol-2-yl)-ethyl]benzenesulfonamide] gave an inhibition at 3.7 µM of 52.2%. Consider `CCn1c([C@@H](C)NS(=O)(=O)c2ccc(Cl)cc2)nc2cc(OC(F)(F)F)ccc21` [Example 64, 4-Chloro-N-{(1R)-1-[1-ethyl-5-(trifluoromethoxy)-1H-benzimidazol-2-yl]ethyl}benzenesulfonamide], for which the inhibition at 3.7 µM is 50.6%. Same read-out and setting: with `CCn1c([C@@H](C)NS(=O)(=O)c2ccc(Cl)cc2)nc2ccc(F)c(F)c21` [Example 65, 4-Chloro-N-[(1R)-1-(1-ethyl-6,7-difluoro-1H-benzimidazol-2-yl)ethyl]benzenesulfonamide] the figure was 84.2%; with `CCn1c([C@@H](C)NS(=O)(=O)c2ccc(Cl)cc2)nc2cccc(C)c21` [Example 66, 4-Chloro-N-[(1R)-1-(1-ethyl-7-methyl-1H-benzimidazol-2-yl)ethyl]benzenesulfonamide], 94.6%; with `CCn1c([C@@H](C)NS(=O)(=O)c2ccc(Cl)cc2)nc2ccc(C(N)=O)cc21` [Example 71, 2-(1-{[(4-Chlorophenyl)sulfonyl]amino}-ethyl)-1-ethyl-1H-benz-imidazole-6-carboxamide], 77.3%. The same measure, in the same setting: the result for `CCn1c([C@@H](C)NS(=O)(=O)c2ccc(Cl)cc2)nc2ccc(CN(C)C)cc21` [Example 74, 4-Chloro-N-((1R)-1-{6-[(dimethylamino)methyl]-1-ethyl-1H-benzimidazol-2-yl}ethyl)benzenesulfonamide] reads 30.4%; that for `CCn1c([C@@H](C)NS(=O)(=O)c2ccc(Cl)cc2)nc2ccc(CN3CCOCC3)cc21` [Example 75, 4-Chloro-N-{(1R)-1-[1-ethyl-6-(morpholin-4-ylmethyl)-1H-benzimidazol-2-yl]ethyl}benzenesulfonamide], 37.2%; that for `CCn1c([C@@H](C)NS(=O)(=O)c2ccc(Cl)cc2)nc2cc(CO)ccc21` [Example 78, 4-Chloro-N-{(1R)-1-[1-ethyl-5-(hydroxymethyl)-1H-benzimidazol-2-yl]ethyl}benzenesulfonamide], 58.4%. `CCn1c([C@@H](C)NS(=O)(=O)c2ccc(Cl)cc2)nc2cc(Br)ccc21` [Example 81, N-[(1R)-1-(5-Bromo-1-ethyl-1H-benzimidazol-2-yl)ethyl]-4-chlorobenzenesulfonamide] displayed an inhibition at 3.7 µM of 91.6%. Compound `CCn1c([C@@H](C)NS(=O)(=O)c2ccc(Cl)cc2)nc2cc(-c3cccnc3)ccc21` [Example 82, 4-Chloro-N-[(1R)-1-(1-ethyl-5-pyridin-3-yl-1H-benzimidazol-2-yl)ethyl]benzenesulfonamide] registered an inhibition at 3.7 µM of 10.3%.
